Test results taken from patent US12263155B2, “Combinations of monoamine oxidase inhibitors and serotonin receptor agonists and their therapeutic use” (Remedi, Inc., priority 2022, dated 2025).

Legend:
[1] = Phase I 14-day twice-daily pharmacokinetics; details: for concentration at 12 h: C12h
Protocol: Methods: The study was a Phase I, single-center, randomized, parallel-group, multiple-dose, placebo-controlled, pharmacodynamic, pharmacokinetic and safety study in healthy volunteers. To obtain 24 enrolled subjects, screening procedures and inclusion/exclusion criteria were evaluated for 54 subjects during a variable screening period of up to 28 days. Once enrolled, subjects were randomized to either CX157 10 mg, 20 mg or 40 mg or matching placebo administered twice daily for 14 consecutive days.
Formulations: Each natural/transparent Licaps® size 0 hard gelatin capsule contains 10 mg CX157 in Labrasol™; each capsule is banded with a green gelatin band comprised of gelatin NF and polysorbate-80 NF. CX157 Liquid Filled Capsules are packaged in white, opaque, high density polyethylene (HDPE) bottles with screw-top polypropylene child resistant caps. Each bottle contains 30 capsules. CX157 Liquid Filled Capsules, 5 and 10 mg are stored long-term at controlled room temperature conditions [15-30° C. (59-86° F.)].

[2] = Phase I modified release tablets BID safety; format: in vivo, human; details: 125 mg and 175 mg BID, 7 days each
Protocol: Methods: A total of 20 Subjects (16 on CX157 and 4 on placebo) were dosed with CX157 Modified Release Tablets, 125 mg BID (total daily dose of 250 mg) or placebo in Period 1 for 7 days. Of the 20 subjects, 19 continued in Period 2 of the study where they received CX157 Modified Release Tablets, 175 mg BID (total daily dose of 350 mg) or placebo in the fed state for 7 days. Subjects who were randomized to CX157 125 mg BID in Period 1 received CX157 175 mg BID in Period 2, after a washout of 7 days. Subjects randomized to placebo in Period 1 received placebo in Period 2, after a washout of 7 days. Blood samples for PK analysis were collected during both periods of the study.

Oxidase MAO-A Peripheral = target: T1, Oxidase MAO-A Peripheral (Rattus norvegicus, UniProt P21396); experiment: NovaScreen ligand-binding screen, MAO-A
T1 construct: purchased NovaScreen
T1 sequence (P21396 1-526): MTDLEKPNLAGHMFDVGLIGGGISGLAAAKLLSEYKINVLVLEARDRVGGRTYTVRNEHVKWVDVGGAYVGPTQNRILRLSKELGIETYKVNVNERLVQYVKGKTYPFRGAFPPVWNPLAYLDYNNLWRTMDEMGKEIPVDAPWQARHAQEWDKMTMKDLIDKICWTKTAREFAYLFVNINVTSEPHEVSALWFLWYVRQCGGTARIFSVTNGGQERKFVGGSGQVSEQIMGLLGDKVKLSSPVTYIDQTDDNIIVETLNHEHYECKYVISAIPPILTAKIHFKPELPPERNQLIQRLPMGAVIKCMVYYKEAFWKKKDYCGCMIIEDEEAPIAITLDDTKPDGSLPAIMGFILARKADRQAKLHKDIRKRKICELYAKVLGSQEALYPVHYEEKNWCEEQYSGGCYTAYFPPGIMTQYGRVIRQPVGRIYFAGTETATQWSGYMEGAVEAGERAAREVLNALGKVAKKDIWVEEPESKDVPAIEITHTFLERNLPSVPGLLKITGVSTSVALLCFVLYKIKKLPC
Protocol: Methods: Investigational drug candidates CX157 were analyzed in NovaScreen's bank of ligand-binding reactions to test for specificity. CX157 was screened at concentrations of both 10.0 nM and 100 nM as potential competitors in binding reactions involving nine classes containing 69 binding sites. The following binding reactions are tested: Adenosine Non-selective, Adrenergic Alpha 1 Non-selective, Adrenergic Alpha 2 Non-selective, Adrenergic Beta Non-selective, Dopamine Transporter, Dopamine Non-selective, GABA A Agonist Site, GABA A BDZ alpha 1 site, GABA B, Glutamate AMPA Site (Ionotropic), Glutamate Kainate Site (Ionotropic), Glutamate NMDA Agonist Site (Ionotropic), Glutamate NMDA Glycine (Stry-insens Site) (Ionotrophic), Glycine Strychnine-sensitive, Histamine H1, Histamine H2, Histamine H3, Melatonin Non-selective, Muscarinic M1 (hr), Muscarinic M2 (hr), Muscarinic Non-selective Central, Muscarinic Non-selective Peripheral, Nicotinic (α-BnTx insensitive) Neuronal, Norepinephrine Transporter, Opioid Non-selective, Orphanin (hr), Serotonin Transporter, Serotonin Non-selective, Sigma Non-selective, Estrogen, Testosterone (cytosolic), Calcium Channel Type L (Dihydropyridine Site), Calcium Channel Type N, Potassium Channel ATP-Sensitive, Potassium Channel Ca2+ Act. VI, Potassium Channel I[Kr]

[3] = healthy volunteers, 10 mg twice daily, Day 1, mean
[4] = healthy volunteers, 10 mg twice daily, Day 14, mean
[5] = healthy volunteers, 20 mg twice daily, Day 1, mean
[6] = healthy volunteers, 20 mg twice daily, Day 14, mean
[7] = healthy volunteers, 40 mg twice daily, Day 1, mean
[8] = healthy volunteers, 40 mg twice daily, Day 14, mean, N = 4
[9] = human, plasma, oral, 10 mg, healthy volunteers, 10 mg twice daily, Day 1, mean
[10] = human, plasma, oral, 10 mg, healthy volunteers, 10 mg twice daily, Day 14, mean
[11] = human, plasma, oral, 20 mg, healthy volunteers, 20 mg twice daily, Day 1, mean
[12] = human, plasma, oral, 20 mg, healthy volunteers, 20 mg twice daily, Day 14, mean
[13] = human, plasma, oral, 40 mg, healthy volunteers, 40 mg twice daily, Day 1, mean
[14] = human, plasma, oral, 40 mg, healthy volunteers, 40 mg twice daily, Day 14, mean, N = 4

O=S1(=O)c2ccc(F)cc2Oc2cc(OCC(F)(F)F)ccc21 [CX157, 3-fluoro-7(2,2,2-trifluorethoxy)phenoxathiine-10,10-dioxide]
AUC0-12h/Dose [1, 3]: 380 | Cmax/Cmin [1, 3]: 31.4 ratio | Cmax/Dose [1, 3]: 137 | Tmin [1, 3]: 10.7 h | AUC0-12h/Dose [1, 4]: 753 | CSS [1, 4]: 8.1 ng/mL | Cmax/Cmin [1, 4]: 6.64 ratio | Cmax/Dose [1, 4]: 185 | Tmin [1, 4]: 12 h | AUC0-12h/Dose [1, 5]: 312 | Cmax/Cmin [1, 5]: 36.7 ratio | Cmax/Dose [1, 5]: 128 | Cmin [1, 5]: 1.13 ng/mL | Tmin [1, 5]: 12 h | AUC0-12h/Dose [1, 6]: 400 | Cmax/Cmin [1, 6]: 10.8 ratio | Cmax/Dose [1, 6]: 104 | Cmin [1, 6]: 3.05 ng/mL | Tmin [1, 6]: 12 h | % AUCextrap ([1]; healthy volunteers, 20 mg twice daily, Day 14, mean, N = 2): 19.0c % | AUC0-12h/Dose [1, 7]: 363 | Cmax/Cmin [1, 7]: 28.2 ratio | Cmax/Dose [1, 7]: 136 | Cmin [1, 7]: 2.52 ng/mL | Tmin [1, 7]: 12 h | % AUCextrap [1, 8]: 16.5% | AUC0-12h/Dose [1, 8]: 687 | CSS [1, 8]: 29.6 ng/mL | Cmax/Cmin [1, 8]: 15.6 ratio | Cmax/Dose [1, 8]: 320 | Cmin [1, 8]: 8.8 ng/mL | Tmin [1, 8]: 12 h | half-life ([1]; human, plasma, oral): 33.3 to 35.3 h | AUC(0-t) ([1]; human, plasma, oral, 10 mg, AUC0-12h, healthy volunteers, 10 mg twice daily, Day 1, mean): 50 ng·h/mL | AUC(0-t) ([1]; human, plasma, oral, 10 mg, AUC0-12h, healthy volunteers, 10 mg twice daily, Day 14, mean): 97 ng·h/mL | AUC(0-t) ([1]; human, plasma, oral, 10 mg, AUClast, healthy volunteers, 10 mg twice daily, Day 14, mean): 180 ng·h/mL | concentration at 12 h [1, 9]: 0.63 ng/mL | concentration at 12 h [1, 10]: 3 ng/mL | Cmax [1, 9]: 18.1 ng/mL | Cmax [1, 10]: 24.2 ng/mL | concentration at 1 day ([1]; human, plasma, oral, 10 mg, Cmin, healthy volunteers, 10 mg twice daily, Day 1, mean): 0.6 ng/mL | concentration at 14 day ([1]; human, plasma, oral, 10 mg, Cmin, healthy volunteers, 10 mg twice daily, Day 14, mean): 3 ng/mL | Tmax ([1]; human, plasma, oral, 10 mg, healthy volunteers, 10 mg twice daily, Day 1, median): 1 h | Tmax ([1]; human, plasma, oral, 10 mg, healthy volunteers, 10 mg twice daily, Day 14, median): 1 h | AUC(0-inf) ([1]; human, plasma, oral, 20 mg): 433 ng·h/mL | half-life ([1]; human, plasma, oral, 20 mg): 33.3 h | AUC(0-t) ([1]; human, plasma, oral, 20 mg, AUC0-12h, healthy volunteers, 20 mg twice daily, Day 1, mean): 83.5 ng·h/mL | AUC(0-t) ([1]; human, plasma, oral, 20 mg, AUC0-12h, healthy volunteers, 20 mg twice daily, Day 14, mean): 115 ng·h/mL | AUC(0-t) ([1]; human, plasma, oral, 20 mg, AUClast, healthy volunteers, 20 mg twice daily, Day 14, mean): 191 ng·h/mL | concentration at 12 h [1, 11]: 1.13 ng/mL | concentration at 12 h [1, 12]: 3.05 ng/mL | concentration at 14 day ([1]; human, plasma, oral, 20 mg, CSS, healthy volunteers, 20 mg twice daily, Day 14, mean): 9.6 ng/mL | Cmax [1, 11]: 32.3 ng/mL | Cmax [1, 12]: 30.1 ng/mL | Tmax ([1]; human, plasma, oral, 20 mg, healthy volunteers, 20 mg twice daily, Day 1, median): 1.25 h | Tmax ([1]; human, plasma, oral, 20 mg, healthy volunteers, 20 mg twice daily, Day 14, median): 1.5 h | AUC(0-inf) ([1]; human, plasma, oral, 40 mg): 712 ng·h/mL | half-life ([1]; human, plasma, oral, 40 mg): 35.3 h | AUC(0-t) ([1]; human, plasma, oral, 40 mg, AUC0-12h, healthy volunteers, 40 mg twice daily, Day 1, mean): 186 ng·h/mL | AUC(0-t) ([1]; human, plasma, oral, 40 mg, AUC0-12h, healthy volunteers, 40 mg twice daily, Day 14, mean, N = 4): 355 ng·h/mL | AUC(0-t) ([1]; human, plasma, oral, 40 mg, AUClast, healthy volunteers, 40 mg twice daily, Day 14, mean, N = 4): 602 ng·h/mL | concentration at 12 h [1, 13]: 2.52 ng/mL | concentration at 12 h [1, 14]: 8.8 ng/mL | concentration at 14 day ([1]; human, plasma, oral, 40 mg, CSS, healthy volunteers, 40 mg twice daily, Day 14, mean, N = 4): 29.6 ± 19.6 ng/mL | Cmax [1, 13]: 69.5 ng/mL | Cmax [1, 14]: 166 ± 179 ng/mL | Tmax ([1]; human, plasma, oral, 40 mg, healthy volunteers, 40 mg twice daily, Day 1, median): 1.08 h | Tmax ([1]; human, plasma, oral, 40 mg, healthy volunteers, 40 mg twice daily, Day 14, median, N = 4): 0.5 h | AUC(0-t) ([1]; human, plasma, oral, 40 mg, mean AUC0-12h, 40 mg twice daily, Day 14): 355 ± 235 ng·h/mL | tolerability [2]: well tolerated | reduction of [14C]-5-HT binding (Oxidase MAO-A Peripheral; 10.0 nM CX157): 63.4% | reduction of [14C]-5-HT binding (Oxidase MAO-A Peripheral; 100 nM CX157): 100.6% | Kd (Oxidase MAO-A Peripheral; read-out: Kd, competition for [14C]-serotonin (5-HT) binding): 8.7 nM
